Read-outs that look alike come from different tables or passages of the source.
Assays:
[1] = system: human breast cancer cell line (MCF-7); assay: MTT assay, growth inhibition of MCF-7 cells; type: cell-based
Description: (§1) To evaluate the anticancer activity of the oxindole derivatives produced and analyzed in examples 1 to 8, MTT assay was performed to confirm the growth inhibitory effect on cancer cells. More specifically, human prostate adenocarcinoma cell line (LNCaP), human breast cancer cell line (MCF-7), human ovarian cancer cell line (SKOV3), human lung cancer cell line […] and human renal adenocarcinoma cell line (786-O) were cultured in DMEM medium supplemented with 1% penicillin/streptomycin and 10% fetal bovine serum (All from Life Technologies, Grand Island, N.Y.). Cells were seeded in 96-well plates (3×10^3 cells/well) containing 100 μL of growth medium for 24 hours. After the medium was removed, 100 μL of each of the different analogues (dissolved in DMSO to 0.025% or less) was added to each well and cultured at 37° C. for 48 hours. After 48 hours of incubation, 100 μL of MTT reagent was added to each well. After incubation at 37° C. for 4 hours, the supernatant was aspirated, and the formazan crystals were dissolved in 100 μL of DMSO at 37° C. for 10 minutes with gentle stirring. Absorbance per well was measured at 540 nm using a VERSA max microplate reader (Molecular Devices Corp.). IC50 values were defined as compound concentrations that inhibited cell proliferation by 50% compared to cells treated with the highest amount of DMSO (0.025%) and were considered to be 100% viability.

[2] = system: human prostate adenocarcinoma cell line (LNCaP); assay: MTT assay, growth inhibition of LNCaP cells; type: cell-based; conditions: for IC50: Homo sapiens, LNCaP; for inhibitory activity in LNCaP (in words): summary of Table 3, LNCaP
Description: as §1

[3] = system: human ovarian cancer cell line (SKOV3); assay: MTT assay, growth inhibition of SKOV3 cells; type: cell-based
Description: as §1

[4] = system: human renal adenocarcinoma cell line (786-O); assay: MTT assay, growth inhibition of 786-O cells; type: cell-based; conditions: for IC50: Homo sapiens; for inhibitory activity in 786-O (in words): summary of Table 3, 786-O
Description: as §1

[5] = system: human lung cancer cell line (A459); assay: MTT assay, growth inhibition of A549 cells; type: cell-based; conditions: for IC50: Homo sapiens
Description: as §1

all carcinomas = assay: MTT assay, summary over all five cancer cell lines; type: cell-based, human; conditions: summary of Table 3, all five cell lines
Description: as §1

[6] = MCF7, MTT, 48 hours incubation, MCF-7, read-out: MCF-7 (IC50)
[7] = MTT, 48 hours incubation, read-out: LNCaP (IC50)
[8] = SK-OV-3, MTT, 48 hours incubation, SKOV3, read-out: SKOV3 (IC50)
[9] = 786-0, MTT, 48 hours incubation, 786-O, read-out: 786-O (IC50)
[10] = MTT, 48 hours incubation, A549, read-out: A549 (IC50)
[11] = MCF7, 48 h, read-out: MCF-7 (IC50, μM)
[12] = 48 h, read-out: LNCaP (IC50, μM)
[13] = SK-OV-3, 48 h, read-out: SKOV3 (IC50, μM)
[14] = 786-0, 48 h, read-out: 786-O (IC50, μM)
[15] = 48 h, read-out: A549 (IC50, μM)

Compound	IC50 [1, 6] [µM]	IC50 [2, 7] [µM]	IC50 [3, 8] [µM]	IC50 [4, 9] [µM]	IC50 [5, 10] [µM]	inhibitory activity against all carcinomas (in words) (all carcinomas)	inhibitory activity in LNCaP (in words) [2]	inhibitory activity in 786-O (in words) [4]	inhibitory activity in A549 (in words) ([5]; summary of Table 3, A549)	IC50 [1, 11] [µM]	IC50 [2, 12] [µM]	IC50 [3, 13] [µM]	IC50 [4, 14] [µM]	IC50 [5, 15] [µM]
CNC(=O)CC1C(=O)N(Nc2ccccc2C)c2c(C)cccc21 (stereo not shown) [3b, N-Methyl-2-(7-methyl-2-oxo-1-(o-tolylamino)indolin-3-yl)acetamide]	> 50	> 50	> 50	> 50	> 50									
CNC(=O)CC1C(=O)N(Nc2cccc(C)c2C)c2c1ccc(C)c2C (stereo not shown) [3c, 2-(1-((2,3-Dimethylphenyl)amino)-6,7-dimethyl-2-oxoindolin-3-yl)-N-methylacetamide]	> 50	44.6	> 50	40.9	> 50									
CNC(=O)CC1C(=O)N(Nc2cccc(F)c2C)c2c1ccc(F)c2C (stereo not shown) [3d, 2-(6-Fluoro-1-((3-fluoro-2-methylphenyl)amino)-7-methyl-2-oxoindolin-3-yl)-N-methylacetamide]	> 50	> 50	> 50	> 50	> 50									
CNC(=O)CC1C(=O)N(Nc2cccc(Cl)c2C)c2c1ccc(Cl)c2C (stereo not shown) [3e, 2-(6-Chloro-1-((3-chloro-2-methylphenyl)amino)-7-methyl-2-oxoindolin-3-yl)-N-methylacetamide]	20.5	15.5	21.3	14.7	33.3	excellent								
CNC(=O)CC1C(=O)N(Nc2cccc(Br)c2C)c2c1ccc(Br)c2C (stereo not shown) [3f, 2-(6-bromo-1-((3-bromo-2-methylphenyl)amino)-7-methyl-2-oxoindolin-3-yl)-N-methylacetamide]	14.8	12.8	16.9	13.3	24	excellent								
CNC(=O)CC1C(=O)N(Nc2ccc(C)cc2C)c2c(C)cc(C)cc21 (stereo not shown) [3g, 2-(1-((2,4-dimethylphenyl)amino)-5,7-dimethyl-2-oxoindolin-3-yl)-N-methylacetamide]	> 50	> 50	> 50	> 50	> 50									
CNC(=O)CC1C(=O)N(Nc2ccc(F)cc2C)c2c(C)cc(F)cc21 (stereo not shown) [3h, 2-(5-Fluoro-1-((4-fluoro-2-methylphenyl)amino)-7-methyl-2-oxoindolin-3-yl)-N-methylacetamide]	> 50	42.9	> 50	41.3	> 50									
CNC(=O)CC1C(=O)N(Nc2ccc(Cl)cc2C)c2c(C)cc(Cl)cc21 (stereo not shown) [3i, 2-(5-Chloro-1-((4-chloro-2-methylphenyl)amino)-7-methyl-2-oxoindolin-3-yl)-N-methylacetamide]	> 50	30.2	44.5	29.5	> 50		excellent inhibitor activity	excellent inhibitor activity						
CNC(=O)CC1C(=O)N(Nc2cc(Br)ccc2C)c2c(C)ccc(Br)c21 (stereo not shown) [3l, 2-(4-Bromo-1-((5-bromo-2-methylphenyl)amino)-7-methyl-2-oxoindolin-3-yl)-N-methylacetamide]	> 50	42.4	> 50	42.7	> 50									
CNC(=O)CC1C(=O)N(Nc2ccccc2)c2ccccc21 (stereo not shown) [3m, N-methyl-2-(2-oxo-1-(phenylamino)indolin-3-yl)acetamide]	> 50	> 50	> 50	> 50	> 50									
CNC(=O)CC1C(=O)N(Nc2ccc(C)cc2)c2ccc(C)cc21 (stereo not shown) [3n, N-Methyl-2-(5-methyl-2-oxo-1-(p-tolylamino)indolin-3-yl)acetamide]	> 50	> 50	> 50	> 50	> 50									
CCc1cccc(NN2C(=O)C(CC(=O)NC)c3ccc(CC)cc32)c1 (stereo not shown) [3o, 2-(6-Ethyl-1-((3-ethylphenyl)amino)-2-oxoindolin-3-yl)-N-methylacetamide]	> 50	> 50	> 50	> 50	> 50									
CCNC(=O)CC1C(=O)N(Nc2ccccc2CC)c2c(CC)cccc21 (stereo not shown) [4b, N-Ethyl-2-(7-ethyl-1-((2-ethylphenyl)amino)-2-oxoindolin-3-yl)acetamide]	> 50	32.2	> 50	> 50	> 50		excellent activity	excellent activity	excellent activity					
CCc1ccccc1NN1C(=O)C(CC(=O)NCc2ccccc2)c2cccc(CC)c21 (stereo not shown) [4c, N-Benzyl-2-(7-ethyl-1-((2-ethylphenyl)amino)-2-oxoindolin-3-yl)acetamide]	16.6	12.2	20.3	10.5	28.9	excellent								
CCc1ccccc1NN1C(=O)C(CC(=O)NC2CCCCC2)c2cccc(CC)c21 (stereo not shown) [4d, N-Cyclohexyl-2-(7-ethyl-1-((2-ethylphenyl)amino)-2-oxoindolin-3-yl)acetamide]	40.4	33	> 50	33.1	> 38.6									
CCc1ccccc1NN1C(=O)C(CC(=O)NC(C)(C)C)c2cccc(CC)c21 (stereo not shown) [4e, N-(tert-butyl)-2-(7-ethyl-1-((2-ethylphenyl)amino)-2-oxoindolin-3-yl)acetamide]	> 50	15.3	> 50	36.6	> 50									
CCc1ccccc1NN1C(=O)C(CC(N)=O)c2cccc(CC)c21 (stereo not shown) [4f, 2-(7-Ethyl-1-((2-ethylphenyl)amino)-2-oxoindolin-3-yl)acetamide]	> 50	> 50	> 50	> 50	> 50									
CCc1ccccc1NN1C(=O)C(CC(=O)Nc2ccccc2)c2cccc(CC)c21 (stereo not shown) [4g, 2-(7-Ethyl-1-((2-ethylphenyl)amino)-2-oxoindolin-3-yl)-N-phenylacetamide]	9.6	6	13.8	4.8	16.8	excellent								
CCOC(=O)NC(=O)CC1C(=O)N(Nc2ccccc2CC)c2c(CC)cccc21 (stereo not shown) [4h, Ethyl (2-(7-ethyl-1-((2-ethylphenyl)amino)-2-oxoindolin-3-yl)acetyl)carbamate]										> 50	> 50	> 50	> 50	> 50
CCc1ccccc1NN1C(=O)C(CC(=O)NC(=O)OC)c2cccc(CC)c21 (stereo not shown) [4i, Methyl (2-(7-ethyl-1-((2-ethylphenyl)amino)-2-oxoindolin-3-yl)acetyl)carbamate]	> 50	33.5	> 50	32.6	> 50									
CCc1ccccc1NN1C(=O)C(CC(=O)N[C@@H](C)C(=O)OC)c2cccc(CC)c21 (stereo partly drawn) [4j, Methyl (2-(7-ethyl-1-((2-ethylphenyl)amino)-2-oxoindolin-3-yl)acetyl)-L-alaninate]										> 50	> 50	> 50	> 50	> 50
CCc1ccccc1NN1C(=O)C(CC(=O)OC)c2cccc(CC)c21 (stereo not shown) [6a, Methyl 2-(7-ethyl-1-((2-ethylphenyl)amino)-2-oxoindolin-3-yl)acetate]	> 50	> 50	> 50	> 50	> 50									
CCc1ccccc1NN1C(=O)C(CC(=O)OC(C)C)c2cccc(CC)c21 (stereo not shown) [6c, Isopropyl 2-(7-ethyl-1-((2-ethylphenyl)amino)-2-oxoindolin-3-yl)acetate]	45.5	14.5	> 50	30.5	> 50		excellent activity							
CCc1cccc2c1NC(=O)C2CC(=O)OC(C)C (stereo not shown) [8b, Isopropyl 2-(7-ethyl-2-oxoindolin-3-yl)acetate]	> 50	> 50	> 50	> 50	> 50									

Source: patent US10322999B2, “Oxindoles derivatives, preparation method thereof and pharmaceutical compositions for the prevention or treatment of cancer containing the same as an active ingredient” (RESEARCH & BUSINESS FOUNDATION SUNGKYUNKWAN UNIVERSITY, priority 2017, dated 2019)
